# Reference: patent US20220233624A9, “ANTI-CANCER AND ANTI-PROLIFERATIVE COMPOSITIONS, AND METHODS FOR THEIR USE IN TREATING CANCER” (Natreon, Inc., priority 2020, published 2022)
# Where “and” joins values, the source holds several entries; their conditions need not be identical. Equal values may be shown once. Read-outs that look alike come from different tables or passages of the source.
# What was measured:
# [1] = tested on: Glioma PDCs (Glioblastoma Grade IV); assay: Anti-proliferation assay (CellTiterGlo, 72 h) on glioma PDCs; type: cell-based, human; details: drug alone @ 10 uM; for inhibition at 10 µM: Homo sapiens
# Procedure: (§1) The outermost rows/columns of the plates were filled with PBS (pH 7.4) to avoid an edge-effect and were considered as blanks. Standardized aqueous extracts identified in Table 2 were prepared in main stock solutions by dissolving 1 mg of extract in 1 ml PBS (phosphate-buffered saline, pH 7.4). […] The plate was incubated in a CO2 incubator for 0/N incubation for 24 hours. […] Once extracts were added to incubated cells and mixed gently, the plate was given a brief spin and incubated in the CO2 incubator for 72 hours. The plate was removed from the incubator and 10 ul of detection reagent (CellTiterGlo®; Promega Corporation, Wisconsin, USA) added to each well of the 384 well plate. […] The assay described above is a two-dimensional (2D) assay.
# [2] = tested on: Breast Cancer PDCs, ER/PR− Her2+ (Her2+); assay: Anti-proliferation assay on breast cancer Her2+ PDCs; type: cell-based, human; details: drug alone @ 10 uM; 10 µM
# Procedure: as §1
# [3] = tested on: AML (Acute myeloid leukemia) PDCs, M4 subtype (SB 33866); assay: Anti-proliferation assay on AML PDCs; type: cell-based, human; details: for inhibition at 10 µM: assay drug control @ 10 uM
# Procedure: Anti-proliferation assays were performed on 6 types of primary patient-derived cancer cells (PDCs) from 6 different human donors, as described in Table 1:
# Tests were performed in 384-well plates (24×16), using 1250 to 10,000 cells/well depending on the size and proliferation rate of different PDCs, in 30 ul of culture media (DMEM/F12 with serum and growth factors), with control wells set aside on each plate for media alone (4 wells), untreated PDCs (4 wells), and for PDCs treated with 10 ul of a known anti-cancer drug as a control. […] The outermost rows/columns of the plates were filled with PBS (pH 7.4) to avoid an edge-effect and were considered as blanks.
# Standardized aqueous extracts identified in Table 2 were prepared in main stock solutions by dissolving 1 mg of extract in 1 ml PBS (phosphate-buffered saline, pH 7.4).
# Anti-Proliferation Assay Protocol: 30 ul of cells were plated at the density of 1250 to 10,000 cells/well. The plate was incubated in a CO2 incubator for 0/N incubation for 24 hours. […] Final assay concentrations of made from stock solutions of standardized aqueous extracts identified in Table 2 were 100 ug/ml, 30 ug/ml, and 10 ug/ml. Since 10 ul extract was added to 30 ul of cell suspension, it diluted 4 times, so to maintain the final assay concentrations, 4× concentrated extract solutions (400 ug/ml, 120 ug/ml, and 40 ug/mo) were prepared from main stock (1 mg/ml) and added to the plate. In all experiments, 10 ul of 4 times concentrated stock (4×) was added to wells containing 30 ul of cell suspension to achieve final assay concentrations at 1X.
# Once extracts were added to incubated cells and mixed gently, the plate was given a brief spin and incubated in the CO2 incubator for 72 hours. The plate was removed from the incubator and 10 ul of detection reagent (CellTiterGlo®; Promega Corporation, Wisconsin, USA) added to each well of the 384 well plate. The plate was incubated (10 min) and luminescence counts measured, with luminescence produced proportional to the number of viable (living, metabolically active) cells for each assay. The assay described above is a two-dimensional (2D) assay.
# In this Example, AML drugs were used as disease specific controls.
# As discussed above in Example I, 6 extracts (Ayuflex®, Capros®, Phyto-BGS®, PrimaVie®, Sensoril®, and Ayuric®) were tested on AML PDC-SB cells (33866, M-4 type, subject) at 3 concentrations: 100 ug/ml, 30 ug/ml, and 10 ug/ml.
# AML cell line HL60 = assay: Anti-proliferation assay on HL60 AML cells; type: cell-based; details: for inhibition at 10 µM: 72 h, Plate 1
# Procedure: 2500 cells were plated per well in 384 well plates. […] CellTiter Glo was used as a detection reagent. Extracts were incubated with the AML HL60 cells for 72 hours.
# [4] = tested on: TN Breast Cancer cell line MDAMB-231; assay: Anti-proliferation assay on MDAMB-231 cells (72 h and 120 h); type: cell-based; details: Homo sapiens, MDA-MB-231, 10 uM
# Procedure: Also, AyuFlex®, Capros®, and Ayuric® were tested in the anti-proliferative assay discussed above in the TN Breast Cancer cell line MDAMB-231. AyuFlex®, Capros®, and Ayuric® were incubated for 72 hours and 120 hours. The dose-response efficacy of AyuFlex®, Capros®, and Ayuric® after a 72-hour period of incubation was similar to that observed after a 120-hour period of incubation with the MDAMB-231 cells. Without being bound by theory, possibly this was due to saturation of cell growth at the 120-hour time-point.
# [5] = tested on: Histiocytic lymphoma (U-937) cells; assay: Anti-proliferation assay on histiocytic lymphoma cells; type: cell-based; details: Homo sapiens
# Procedure: Cells were plated at 1.25 k/well in 384 well plates. […] Anti-proliferative assays were generally performed as described in Example I above, in triplicate, with detection reagent CellTiterGlo. Tables 98-99 show data for controls for assays on histiocytic lymphoma (U-937) cells, and that the data passed quality control parameters. Tables 101-102 show data for controls for assays on pancreatic cancer (Panc-1) cells, and that the data passed quality control parameters. […] The assay is generally as described in Example I.
compound,measurement,setting,value
"COc1cccc2c1C(=O)c1c(O)c3c(c(O)c1C2=O)C[C@@](O)(C(=O)CO)C[C@@H]3O[C@H]1C[C@H](N)[C@H](O)[C@H](C)O1 [Doxorubicin, doxorubicin]",inhibition at 10 µM,[1]; read-out: % Inhibition Avg,82%
same,inhibition at 10 µM,"[1]; read-out: % Inhibition, single replicates",81%
same,% Inhibition Avg,[1]; 10 µM,97%
same,"% Inhibition, single replicates",[1]; 10 µM,83% and 98% and 97% and 96%
same,% Inhibition Avg,[2],60% and 96%
same,"% Inhibition, single replicates",[2],62% and 58% and 95% and 97%
same,Inhibitory Concentration IC75,[3]; AML cells (M4),260 nM
same,inhibition at 10 µM,"[3]; Homo sapiens, read-out: % Inhibition Avg",72%
same,inhibition at 10 µM,"[3]; Homo sapiens, read-out: % Inhibition n1",70%
same,inhibition at 10 µM,"[3]; Homo sapiens, read-out: % Inhibition n2",73%
same,inhibition at 3 µM,"[3]; Homo sapiens, drug alone 3 uM, read-out: inhibition of AML proliferation",100%
same,inhibition at 3 µM,"[3]; Homo sapiens, drug alone @ 3 uM, read-out: % Inhibition Avg",100%
same,inhibition at 3 µM,"[3]; Homo sapiens, drug alone @ 3 uM, read-out: % Inhibition n1",100%
same,inhibition at 3 µM,"[3]; Homo sapiens, drug alone @ 3 uM, read-out: % Inhibition n2",100%
same,inhibition at 3 µM,"[3]; Homo sapiens, drug alone @ 3 uM, read-out: % Inhibition n3",100%
same,IC50,"[3]; Homo sapiens, AML cells (M4), read-out: Inhibitory Concentration IC50",103 nM
same,IC25,"AML cell line HL60; HL60 AML cells, potential dosing for further experiments",59 nM
same,inhibition at 3 µM,"AML cell line HL60; Homo sapiens, HL-60",≥ 90%
same,inhibition at 10 µM,"AML cell line HL60; Homo sapiens, HL-60, read-out: % Inhibition Average (SD)",0%
same,inhibition at 10 µM,"AML cell line HL60; Homo sapiens, HL-60, read-out: % Inhibition n1",100%
same,inhibition at 10 µM,"AML cell line HL60; Homo sapiens, HL-60, read-out: % Inhibition n2",100%
same,inhibition at 10 µM,"AML cell line HL60; Homo sapiens, HL-60, read-out: % Inhibition n3",100%
same,IC50,"AML cell line HL60; Homo sapiens, HL-60, dose-response curve, FIG. 35",79 nM
same,inhibition at 10 µM,"[4]; 72 hour incubation, read-out: % Inhibition Avg",75%
same,inhibition at 10 µM,"[4]; 72 hour incubation, read-out: % Inhibition n1",78%
same,inhibition at 10 µM,"[4]; 72 hour incubation, read-out: % Inhibition n2",73%
same,inhibition at 10 µM,"[4]; 72 hour incubation, read-out: % Inhibition n3",73%
same,inhibition at 10 µM,"[4]; 120 hour incubation, read-out: % Inhibition Avg",92%
same,inhibition at 10 µM,"[4]; 120 hour incubation, read-out: % Inhibition n1",94%
same,inhibition at 10 µM,"[4]; 120 hour incubation, read-out: % Inhibition n2",91%
same,inhibition at 10 µM,"[4]; 120 hour incubation, read-out: % Inhibition n3",92%
same,inhibition at 10 µM,"[5]; 10 uM, 72 h, read-out: % Inhibition Average (SD)",100%
same,inhibition at 10 µM,"[5]; 10 uM, 72 h, read-out: % Inhibition n1",100%
same,inhibition at 10 µM,"[5]; 10 uM, 72 h, read-out: % Inhibition n2",100%
same,inhibition at 10 µM,"[5]; 10 uM, 72 h, read-out: % Inhibition n3",100%
same,inhibition at 10 µM,"[5]; drug 10 uM, read-out: inhibition",100%
